According to the supplement of paper PMC10307832:

Columns and labels:
Assay in all cases: relative viability (nuclei count vs DMSO), 5 days (fraction); higher = more cells survive
[1] = compound: C1CC1C(=O)NC2=NNC3=C2C=CC(=C3)C4=CC(=CC=C4)C(=O)NC5CC5 [XMD13-2] + CC1(C)CCC(c2ccc(Cl)cc2)=C(CN2CCN(c3ccc(C(=O)NS(=O)(=O)c4ccc(N[C@H](CCN5CCOCC5)CSc5ccccc5)c(S(=O)(=O)C(F)(F)F)c4)cc3)CC2)C1 [Navitoclax] (partner 0.5 µM)
Procedure, shortened: (§1)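 The day after seeding in 1536-well plates, lung cancer cell lines were treated by pin tool with a single drug, or with a fixed anchor-drug dose together with five library-drug doses (not always all listed) in √10 steps. After 5 days, a combined fix-and-stain solution (final 0.05% Triton X-100, 1% formaldehyde, 1 ug/ml Hoechst) was added. Nuclei counted on 4× images gave relative viability as treated counts over vehicle counts, reported as the median of duplicate plates.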

[2] = compound: C1CC1C(=O)NC2=NNC3=C2C=CC(=C3)C4=CC(=CC=C4)C(=O)NC5CC5 [XMD13-2] + COc1cc2c(Oc3ccc(NC(=O)C4(C(=O)Nc5ccc(F)cc5)CC4)cc3F)ccnc2cc1OCCCN1CCOCC1 [Foretinib] (partner 0.25 µM)
Procedure, shortened: as §1

[3] = compound: Cc1nc(Nc2ncc(C(=O)Nc3c(C)cccc3Cl)s2)cc(N2CCN(CCO)CC2)n1 [Dasatinib] + CC(=O)Nc1cccc(-n2c(=O)n(C3CC3)c(=O)c3c(Nc4ccc(I)cc4F)n(C)c(=O)c(C)c32)c1 [Trametinib] (partner 0.02 µM)
Procedure, shortened: as §1

[4] = compound: Cc1nc(Nc2ncc(C(=O)Nc3c(C)cccc3Cl)s2)cc(N2CCN(CCO)CC2)n1 [Dasatinib] + CC(=O)c1c(C)c2cnc(Nc3ccc(N4CCNCC4)cn3)nc2n(C2CCCC2)c1=O [Palbociclib] (partner 0.5 µM)
Procedure, shortened: as §1

**Q.** With UMC-11 as the cell line, how does the relative viability ([1]; first compound 0.05 µM) read?
**A.** 0.347

**Q.** And the relative viability ([1]; first compound 0.1581 µM)?
**A.** 0.284

**Q.** And the relative viability ([1]; first compound 0.5 µM)?
**A.** 0.309

**Q.** What about the relative viability ([1]; first compound 1.581 µM) of the same cell line?
**A.** 0.344

**Q.** And the relative viability ([1]; first compound 5 µM)?
**A.** 0.265

**Q.** And the relative viability ([2]; first compound 0.05 µM)?
**A.** 1.23

**Q.** What about the relative viability ([2]; first compound 0.1581 µM) of the same cell line?
**A.** 1.09

**Q.** And the relative viability ([2]; first compound 0.5 µM)?
**A.** 1

**Q.** And the relative viability ([2]; first compound 1.581 µM)?
**A.** 1.08

**Q.** What about the relative viability ([2]; first compound 5 µM) of the same cell line?
**A.** 1.06

**Q.** And the relative viability ([3]; first compound 0.005 µM)?
**A.** 0.675

**Q.** And the relative viability ([3]; first compound 0.01581 µM)?
**A.** 0.63

**Q.** What about the relative viability ([3]; first compound 0.05 µM) of the same cell line?
**A.** 0.631

**Q.** And the relative viability ([3]; first compound 0.1581 µM)?
**A.** 0.358

**Q.** What about the relative viability ([3]; first compound 0.5 µM) of the same cell line?
**A.** 0.317

**Q.** And the relative viability ([4]; first compound 0.005 µM)?
**A.** 0.335

**Q.** And the relative viability ([4]; first compound 0.01581 µM)?
**A.** 0.278

**Q.** And the relative viability ([4]; first compound 0.05 µM)?
**A.** 0.27

**Q.** And the relative viability ([4]; first compound 0.1581 µM)?
**A.** 0.236

**Q.** And the relative viability ([4]; first compound 0.5 µM)?
**A.** 0.188
